In patent US8716309B2, “Pharmaceutical composition comprising pyridone derivatives” (priority 2011, dated 2014):
Where two headings read alike, the source gives them in different places.

Experiments:
human α7 nAChR = human α7 nAChR (Homo sapiens, UniProt P36544); test: cell-based; settings: EC50 of human α7nAChR(nM), HEK293T/17 cells transfected with human α7 nAChR; PNU-120596 added; relative to epibatidine 1 μM positive control
Male ICR mice [1] = test: Novel Object Recognition Test (NORT), MK-801 induced amnesia; format: in vivo; settings: Mus musculus; po; dose at which the relative RI is given; doses 0.03˜3 mg/kg; read-out: NORT MED
Excerpt: A NORT, which was first introduced by Ennaceur and Delacour, is a cognitive memory test for measuring whether rats are able to remember objects with which they have had previous experience based on the nature of rats, i.e., preference to explore novel objects [Ennaceur A and Delacour J (1988) A new one-trial test for neurobiological studies of memory in rats. 1; Behavioral data. Behavioral Brain Res. 31; 47-59]. This NOR test is a popular experimental method for measuring changes in memory of objects in rodents administered with either an amnesia-inducing drug or other general drugs, by which memory recovery efficacy of a test drug in the rodents administered with the amnesia-inducing drug is explored. In the present example, the test was performed in accord with the description of Bevins and Besheer [Bevins, R. A. & Besheer, J. Object recognition in rats and mice; a one-trial non-matching-to-sample learning task to study ‘recognition memory’. Nat. Protoc. 2006; 1(3); 1306-11. (2006)]. Male ICR mice (available from Orient Bio Inc., Korea) weighing from about 20 g to about 32 g were orally administered a test compound dissolved in a 30% PEG at doses of 0.03˜3 mg/kg and 10 ml/kg body weight. 30 minutes after the administration, MK-801 (available from Sigma) dissolved in saline was subcutaneously administered at doses of 0.1 mg/kg and 10 ml/kg body weight to induce amnesia. About 30 minutes after the administration of MK-801, the mice were allowed to explore a rectangular stainless steel pillar or a circular plastic pillar which was previously placed in a box for about 5 minutes. About 24 hours after the exploration, one of the two objects previously presented was replaced with a new one (i.e., to include one rectangular stainless steel pillar and one circular plastic pillar), the times they took to explore were measured for about 5 minutes. A recognition index (RI) was defined as: [(Exploration time for novel object in test compound group/Exploration time for all objects in test compound group)/(Exploration time for novel object in MK801 group/Exploration time for all objects in MK801 group)×100].
Table 2 below presents relative RIs of the compounds at a minimal dose […].

Male ICR mice [2] = test: as above; format: in vivo; settings: Mus musculus; ip; dose at which the relative RI is given; doses 0.03˜3 mg/kg; read-out: NORT MED

Sequence of human α7 nAChR (P36544 23-502): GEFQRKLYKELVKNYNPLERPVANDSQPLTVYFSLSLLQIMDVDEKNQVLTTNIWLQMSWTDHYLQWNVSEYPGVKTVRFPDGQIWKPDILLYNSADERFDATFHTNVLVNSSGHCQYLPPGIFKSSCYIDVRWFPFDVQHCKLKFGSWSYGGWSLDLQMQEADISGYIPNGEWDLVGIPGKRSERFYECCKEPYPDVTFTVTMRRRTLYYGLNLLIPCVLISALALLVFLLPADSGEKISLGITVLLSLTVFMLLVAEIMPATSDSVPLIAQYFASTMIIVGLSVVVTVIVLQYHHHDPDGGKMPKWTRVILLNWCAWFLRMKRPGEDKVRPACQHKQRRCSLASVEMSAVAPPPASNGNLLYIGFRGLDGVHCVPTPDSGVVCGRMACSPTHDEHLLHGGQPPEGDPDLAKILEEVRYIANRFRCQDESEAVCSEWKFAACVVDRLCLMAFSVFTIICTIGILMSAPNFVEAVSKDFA

| SMILES | EC50 (human α7 nAChR) | minimal effective dose at 3 mg/kg (Male ICR mice [1]) | minimal effective dose (Male ICR mice [2]) | minimal effective dose (Male ICR mice [1]) |
| --- | --- | --- | --- | --- |
| O=C(NC1CN2CCC1CC2)c1ccc(=O)n(-c2ccc(Cl)cc2)c1 (centres unmarked) [Example 4, N-(1-azabicyclo[2.2.2]octan-3-yl)-1-(4-chlorophenyl)-6-oxo-3-pyridinecarboxamide] | > 1000 nM | 3 mg/kg | – | – |
| O=C(N[C@H]1CN2CCC1CC2)c1ccc(=O)n(-c2ccc(Cl)cc2)c1 [Example 5, N-[(3R)-1-azabicyclo[2.2.2]octan-3-yl]-1-(4-chlorophenyl)-6-oxopyridine-3-carboxamide] | > 1000 nM | – | 0.1 mg/kg | – |
| O=C(NC1CN2CCC1CC2)c1ccc(=O)n(-c2ccc(Cl)cc2Cl)c1 (centres unmarked) [Example 25, N-(1-azabicyclo[2.2.2]octan-3-yl)-1-(2,4-dichlorophenyl)-6-oxo-3-pyridinecarboxamide] | 500 to 1000 nM | – | – | 3 mg/kg |
| O=C(N[C@H]1CN2CCC1CC2)c1ccc(=O)n(-c2ccc(Cl)cc2Cl)c1 [Example 26, N-[(3R)-1-azabicyclo[2.2.2]octan-3-yl)-1-(2,4-dichlorophenyl)-6-oxo-3-pyridinecarboxamide] | 100 to 500 nM | – | – | 1 mg/kg |
| O=C(N[C@@H]1CN2CCC1CC2)c1ccc(=O)n(-c2ccc(Cl)cc2Cl)c1 [Example 27, N-[(3S)-1-azabicyclo[2.2.2]octan-3-yl)-1-(2,4-dichlorophenyl)-6-oxo-3-pyridinecarboxamide] | > 1000 nM | – | – | 1 mg/kg |
| Cc1ccc(-n2cc(C(=O)NC3CN4CCC3CC4)ccc2=O)c(Cl)c1 (centres unmarked) [Example 33, N-(1-azabicyclo[2.2.2]octan-3-yl)-1-(2-chloro-4-methylphenyl)-6-oxo-3-pyridinecarboxamide] | 100 to 500 nM | – | – | 1 mg/kg |
| O=C(NC1CN2CCC1CC2)c1ccc(=O)n(-c2ccc(-c3ccccc3)cc2)c1 (centres unmarked) [Example 65, N-(1-azabicyclo[2.2.2]octan-3-yl)-1-(4-phenylphenyl)-6-oxo-3-pyridinecarboxamide] | 100 to 500 nM | – | 1 mg/kg | – |
| CSc1ccccc1-n1cc(C(=O)NC2CN3CCC2CC3)ccc1=O (centres unmarked) [Example 77, N-(1-azabicyclo[2.2.2]octan-3-yl)-1-[2-(methylthio)phenyl]-6-oxo-3-pyridinecarboxamide] | < 100 nM | – | 0.1 mg/kg | – |
| COc1ccc(-n2cc(C(=O)NC3CN4CCC3CC4)ccc2=O)c(SC)c1 (centres unmarked) [Example 84, N-(1-azabicyclo[2.2.2]octan-3-yl)-1-[4-methoxy-2-(methylthio)phenyl]-6-oxo-3-pyridinecarboxamide] | < 100 nM | – | – | 0.3 mg/kg |
| CSc1cc(Cl)ccc1-n1cc(C(=O)NC2CN3CCC2CC3)ccc1=O (centres unmarked) [Example 86, N-(1-azabicyclo[2.2.2]octan-3-yl)-1-[4-chloro-2-(methylthio)phenyl]-6-oxo-3-pyridinecarboxamide] | < 100 nM | – | – | 0.3 mg/kg |
| CSc1cc(C)ccc1-n1cc(C(=O)NC2CN3CCC2CC3)ccc1=O (centres unmarked) [Example 89, N-(1-azabicyclo[2.2.2]octan-3-yl)-1-[4-methyl-2-(methylthio)phenyl]-6-oxo-3-pyridinecarboxamide] | < 100 nM | – | – | 0.03 mg/kg |
| CSc1cc(C)ccc1-n1cc(C(=O)N[C@@H]2CN3CCC2CC3)ccc1=O [Example 91, N-[(3S)-1-azabicyclo[2.2.2]octan-3-yl]-1-[4-methyl-2-(methylthio)phenyl]-6-oxo-3-pyridinecarboxamide] | 100 to 500 nM | 3 mg/kg | – | – |
| CCCc1ccc(-n2cc(C(=O)NC3CN4CCC3CC4)ccc2=O)c(SC)c1 (centres unmarked) [Example 94, N-(1-azabicyclo[2.2.2]octan-3-yl)-1-[2-(methylthio)-4-propylphenyl]-6-oxo-3-pyridinecarboxamide] | < 100 nM | – | – | – |
| O=C(NC1CN2CCC1CC2)c1ccc(=O)n(-c2ccccc2Sc2ccccc2)c1 (centres unmarked) [Example 95, N-(1-azabicyclo[2.2.2]octan-3-yl)-6-oxo-1-[2-(phenylthio)phenyl]-3-pyridinecarboxamide] | < 100 nM | – | – | – |
| CSc1cc(C(C)C)ccc1-n1cc(C(=O)NC2CN3CCC2CC3)ccc1=O (centres unmarked) [Example 96, N-(1-azabicyclo[2.2.2]octan-3-yl)-1-[2-(methylthio)-4-propan-2-ylphenyl]-6-oxo-3-pyridinecarboxamide] | < 100 nM | – | – | – |
| CCSc1cc(Cl)ccc1-n1cc(C(=O)NC2CN3CCC2CC3)ccc1=O (centres unmarked) [Example 97, N-(1-azabicyclo[2.2.2]octan-3-yl)-1-[4-chloro-2-(ethylthio)phenyl]-6-oxo-3-pyridinecarboxamide] | < 100 nM | – | – | – |
| CCc1ccc(-n2cc(C(=O)NC3CN4CCC3CC4)ccc2=O)c(SC)c1 (centres unmarked) [Example 98, N-(1-azabicyclo[2.2.2]octan-3-yl)-1-[4-ethyl-2-(methylthio)phenyl]-6-oxo-3-pyridinecarboxamide] | < 100 nM | – | – | – |
| CSc1cc(C2CCCCC2)ccc1-n1cc(C(=O)NC2CN3CCC2CC3)ccc1=O (centres unmarked) [Example 99, N-(1-azabicyclo[2.2.2]octan-3-yl)-1-[4-cyclohexyl-2-(methylthio)phenyl]-6-oxo-3-pyridinecarboxamide] | 100 to 500 nM | – | – | – |
| CS(=O)(=O)c1ccc(-n2cc(C(=O)NC3CN4CCC3CC4)ccc2=O)cc1 (centres unmarked) [Example 101, N-(1-azabicyclo[2.2.2]octan-3-yl)-1-(4-methylsulfonylphenyl)-6-oxo-3-pyridinecarboxamide] | 100 to 500 nM | – | – | – |
| O=C(NC1CN2CCC1CC2)c1ccc(=O)n(-c2cccc3ccccc23)c1 (centres unmarked) [Example 102, N-(1-azabicyclo[2.2.2]octan-3-yl)-1-(1-naphthalenyl)-6-oxo-3-pyridinecarboxamide] | 100 to 500 nM | – | – | – |
| O=C(NC1CN2CCC1CC2)c1ccc(=O)n(-c2ccccc2-c2nccs2)c1 (centres unmarked) [Example 104, N-(1-azabicyclo[2.2.2]octan-3-yl)-6-oxo-1-[2-(2-thiazolyl)phenyl]-3-pyridinecarboxamide] | 100 to 500 nM | – | – | 3 mg/kg |
| O=C(NC1CN2CCC1CC2)c1ccc(=O)n(-c2ccc(Cl)cc2-c2nccs2)c1 (centres unmarked) [Example 105, N-(1-azabicyclo[2.2.2]octan-3-yl)-1-[4-chloro-2-(2-thiazolyl)phenyl]-6-oxo-3-pyridine carboxamide] | 500 to 1000 nM | – | – | 0.3 mg/kg |
| Cc1cnc(-c2ccccc2-n2cc(C(=O)NC3CN4CCC3CC4)ccc2=O)s1 (centres unmarked) [Example 106, N-(1-azabicyclo[2.2.2]octan-3-yl)-1-[2-(5-methyl-2-thiazolyl)phenyl]-6-oxo-3-pyridinecarboxamide] | 500 to 1000 nM | – | – | – |
| O=C(NC1CN2CCC1CC2)c1ccc(=O)n(-c2ccccc2-c2nc3ccccc3s2)c1 (centres unmarked) [Example 107, N-(1-azabicyclo[2.2.2]octan-3-yl)-1-[2-(1,3-benzothiazole-2-yl)phenyl]-6-oxo-3-pyridinecarboxamide] | < 100 nM | – | – | – |
| Cc1ccc(-c2ccc(-n3cc(C(=O)NC4CN5CCC4CC5)ccc3=O)cc2)s1 (centres unmarked) [Example 108, N-(1-azabicyclo[2.2.2]octan-3-yl)-1-[4-(5-methyl-2-thiophenyl)phenyl]-6-oxo-3-pyridinecarboxamide] | 100 to 500 nM | – | – | – |
| Cc1ccc(-c2ccc(-n3cc(C(=O)NC4CN5CCC4CC5)ccc3=O)c(Cl)c2)s1 (centres unmarked) [Example 109, N-(1-azabicyclo[2.2.2]octan-3-yl)-1-[2-chloro-4-(5-methyl-2-thiophenyl)phenyl]-6-oxo-3-pyridinecarboxamide] | 100 to 500 nM | – | – | 3 mg/kg |
| O=C(NC1CN2CCC1CC2)c1ccc(=O)n(-c2ccccc2-c2cccs2)c1 (centres unmarked) [Example 110, N-(1-azabicyclo[2.2.2]octan-3-yl)-6-oxo-1-(2-thiophene-2-ylphenyl)-3-pyridinecarboxamide] | 100 to 500 nM | – | – | – |
| Cc1ccc(-c2ccccc2-n2cc(C(=O)NC3CN4CCC3CC4)ccc2=O)s1 (centres unmarked) [Example 111, N-(1-azabicyclo[2.2.2]octan-3-yl)-1-[2-(5-methyl-2-thiophenyl)phenyl]-6-oxo-3-pyridinecarboxamide] | 100 to 500 nM | – | – | – |
| CN(C)c1ccc(-n2cc(C(=O)NC3CN4CCC3CC4)ccc2=O)cc1 (centres unmarked) [Example 113, N-(1-azabicyclo[2.2.2]octan-3-yl)-1-[4-dimethylaminophenyl]-6-oxo-3-pyridinecarboxamide] | 500 to 1000 nM | – | – | – |
